Test [1] concerns Pythium ultimum. The test is described as follows: Protection of corn against infestation with Pythium ultimum (seed treatment, infested small-parcel fields). The format is in vivo. Conditions: corn seed treated with triticonazole 5 gai/100 kg alone; based on a weighted 0-5 infection scale; untreated control 70. The procedure: An isolate of Pythium ultimum originally isolated from maize was grown on potatoe dex-trose agar (PDA) at 22° C. in the dark for 14 days. A vermiculate/maize meal/distilled water mixture (2.7:1:1) was autoclaved at 121° C. for 30 minutes in polyethylene “auto-clave” bags. Once cool, the mixture was inoculated with 40×5 mm^2 agar disks cut from the Pyhtium ultimum cultures and mixed well. The inoculum bags were sealed and then incubated for 14 days at 21° C. for 14 days in the dark. Successful growth was checked by extracting granules of vermiculate and plating on PDA. Infested soil was prepared by mixing peat: sharp washed sand (3:1) removing any large peat clumps, adding maize meal mixture (40:60 v/v) and combining the two well.
Corn seed was either treated with a slurry comprising triticonazole and/or prochloraz in water so that the amounts indicated below were applied per 100 kg of seed, or left untreated (control). Small-parcel fields (1×2 m) were infested with Pythium ultimum as described above. After sowing and emergence the seedlings the disease index (based on a weighted 0-5 infection scale) was determined.

Test [2] has as its system Rhizoctonia solani. In words: Protection of corn against infestation with Rhizoctonia solani (seed treatment, infested small-parcel fields). The format is in vivo. Conditions: corn seed treated with triticonazole 5 gai/100 kg alone; seedlings surviving (from 50) after sowing and emergence; untreated control 46. On the procedure: An isolate of Rhizoctonia solani originally isolated from maize was grown on potatoe dextrose agar (PDA) at 20° C. in the dark for 14 days. A vermiculite/maize meal/distilled water mixture (2.7:1:1) was autoclaved at 121° C. for 30 minutes in poly-ethylene “autoclave” bags. Once cool, the mixture was inoculated with 40×5 mm^2 agar disks cut from the Rhizoctonia solani cultures and mixed well. The inoculum bags were sealed and then incubated for 14 days at 22° C. with 16 hours light and 8 hours dark periods. Successful growth was checked by extracting granules of vermiculate and plating on PDA. Infested soil was prepared by mixing peat: sharp washed sand (3:1), removing any large peat clumps, adding maize meal mixture (9:1) and combining the two wells.
Corn seed was either treated with a slurry comprising triticonazole and/or prochloraz in water so that the amounts indicated below were applied per 100 kg of seed, or left untreated (control). Small-parcel fields (1×2 m) were infested with Rhizoctonia solani as described above. After sowing and emergence the number of seedlings surviving (from 50) was determined.

On to `CC1(C)CC/C(=C\c2ccc(Cl)cc2)C1(O)Cn1cncn1` (centres unmarked) [Triticonazole, (E)-5-(4-chlorbenzyliden)-2,2-dimethyl-1-(1H-1,2,4-triazol-1-ylmethyl)cyclopentanol], for which the Disease index in test [1] stood at 71%. Also, in test [2], the “Percentage of plants surviving” value was determined as 36%.

(Values after patent US20100048396A1, “METHOD, USE AND AGENT FOR PROTECTING A PLANT AGAINST PYTHIUM AND RHIZOCTONIA” (priority 2007, published 2010).)
